# Measured values published in patent US20110184188A1, “Insecticidal Benzenedicarboxamide Derivative” (priority 2008, published 2011).
# Assay: logP(acid) by reverse phase (C18) chromatography at pH 2.3
# Type: physicochemical
# Conditions: reverse phase (C18) chromatography at pH 2.3
row,Compound,logP (acid)
1,Cc1nc(Cn2nc(C(F)F)c(Cl)c2C(F)F)ccc1NC(=O)c1cccc(Cl)c1C(=O)NC(C)C[S+](C)[O-] (mixture of isomers) [13-58],2.13
2,Cc1cc(Cn2nc(C(F)(F)F)cc2C(F)(F)F)ncc1NC(=O)c1cccc(I)c1C(=O)NC(C)C[S+](C)[O-] (mixture of isomers) [13-182],logP (acid) 2.3
3,Cc1nc(Cn2nc(C(F)(F)C(F)(F)F)cc2C(F)(F)F)ccc1NC(=O)c1cccc(Br)c1C(=O)NC(C)C[S+](C)[O-] (mixture of isomers) [13-188],logP (acid) 2.81
4,Cc1nc(Cn2nc(C(F)(F)C(F)(F)F)cc2C(F)(F)F)ccc1NC(=O)c1cccc(I)c1C(=O)NC(C)C[S+](C)[O-] (mixture of isomers) [13-190],logP (acid) 2.76

# Other lines, results leading:
row,logP (acid),Compound
1,logP (acid) 4.18,CSC[C@H](C)NC(=O)c1c(Cl)cc(Cl)cc1C(=O)Nc1ccc(Cn2nc(C(F)(F)F)cc2C(F)(F)F)nc1C [10-1]
2,logP (acid) 2.83,Cc1nc(Cn2nc(C(F)(F)F)cc2C(F)(F)F)ccc1NC(=O)c1cc(Cl)cc(Cl)c1C(=O)N[C@@H](C)C[S+](C)[O-] (stereo partly drawn) [10-2]
3,logP (acid) 4.64,CSC[C@H](C)NC(=O)c1c(Cl)cc(Cl)cc1C(=O)Nc1ccc(Cn2nc(C(F)(F)C(F)(F)F)nc2C(F)(F)F)cc1C [10-10]
4,logP (acid) 3.28,Cc1cc(Cn2nc(C(F)(F)C(F)(F)F)nc2C(F)(F)F)ccc1NC(=O)c1cc(Cl)cc(Cl)c1C(=O)N[C@@H](C)C[S+](C)[O-] (stereo partly drawn) [10-11]
5,logP (acid) 3.61,Cc1cc(Cn2nc(C(F)(F)C(F)(F)F)nc2C(F)(F)F)ccc1NC(=O)c1cc(Cl)cc(Cl)c1C(=O)N[C@@H](C)CS(C)(=O)=O [10-12]
6,logP (acid) 3.00,Cc1cc(Cn2nc(C(F)(F)C(F)(F)F)nc2C(F)(F)F)ccc1NC(=O)c1cc(F)cc(Cl)c1C(=O)N[C@@H](C)C[S+](C)[O-] (stereo partly drawn) [10-14]
7,logP (acid) 3.37,Cc1cc(Cn2nc(C(F)(F)C(F)(F)F)nc2C(F)(F)F)ccc1NC(=O)c1cc(F)cc(Cl)c1C(=O)N[C@@H](C)CS(C)(=O)=O [10-15]
8,logP (acid) 3.72,CSC[C@H](C)NC(=O)c1c(I)ccc(F)c1C(=O)Nc1ccc(Cn2nc(C(F)(F)F)cc2C(F)(F)F)nc1C [11-1]
9,logP (acid) 4.14,CSCC(C)NC(=O)c1c(Cl)ccc(Cl)c1C(=O)Nc1ccc(Cn2nc(C(F)(F)F)cc2C(F)(F)F)nc1C (stereo not drawn) [11-4]
10,logP (acid) 2.65,Cc1nc(Cn2nc(C(F)(F)F)cc2C(F)(F)F)ccc1NC(=O)c1c(Cl)ccc(Cl)c1C(=O)N[C@@H](C)C[S+](C)[O-] (stereo partly drawn) [11-5]
11,logP (acid) 3.05,Cc1nc(Cn2nc(C(F)(F)F)cc2C(F)(F)F)ccc1NC(=O)c1c(Cl)ccc(Cl)c1C(=O)N[C@@H](C)CS(C)(=O)=O [11-6]
12,logP (acid) 3.89,CSC[C@H](C)NC(=O)c1c(Cl)ccc(Br)c1C(=O)Nc1ccc(Cn2nc(C(F)(F)F)cc2C(F)(F)F)nc1C [11-13]
13,logP (acid) 2.68,Cc1nc(Cn2nc(C(F)(F)F)cc2C(F)(F)F)ccc1NC(=O)c1c(Br)ccc(Cl)c1C(=O)N[C@@H](C)C[S+](C)[O-] (stereo partly drawn) [11-14]
14,logP (acid) 3.05,Cc1nc(Cn2nc(C(F)(F)F)cc2C(F)(F)F)ccc1NC(=O)c1c(Br)ccc(Cl)c1C(=O)N[C@@H](C)CS(C)(=O)=O [11-15]
15,logP (acid) 3.63,COc1ccc(Br)c(C(=O)Nc2ccc(Cn3nc(C(F)(F)F)cc3C(F)(F)F)nc2C)c1C(=O)N[C@@H](C)CSC [11-16]

# Same assay, conditions: reverse phase (C18) chromatography at pH2.3, 0.1% phosphoric acid aqueous solution / acetonitrile gradient
row,logP (acid),Compound
1,logP (acid) 4.13,CSC[C@H](C)NC(=O)c1c(Cl)cccc1C(=O)Nc1cc(F)c(Cn2nc(C(F)(F)F)cc2C(F)(F)F)nc1C [7-150]

# Same assay, conditions: reverse phase (C18) chromatography at pH2.3, 0.1% phosphoric acid aqueous solution / acetonitrile, linear gradient 10-95%
row,Compound,logP (acid)
1,CNC(=O)c1cc(Cl)cc(Cl)c1C(=O)Nc1cc(Cl)cc(Cn2nc(C(F)(F)F)nc2C(F)(F)F)c1 [4-1],logP (acid) 3.32
2,CSC[C@H](C)NC(=O)c1c(Cl)cccc1C(=O)Nc1cccc(Cn2cc(C(F)(F)C(F)(F)F)c(C(F)(F)C(F)(F)F)n2)c1C [4-6],logP (acid) 4.52
3,CSC[C@H](C)NC(=O)c1c(Cl)cccc1C(=O)Nc1cccc(Cn2nc(C(F)(F)C(F)(F)F)nc2-c2ccc(Cl)cc2)c1C [4-9],logP (acid) 4.32
4,CSC[C@H](C)NC(=O)c1c(Cl)cccc1C(=O)Nc1cccc(Cn2nc(C(F)(F)C(F)(F)F)nc2-c2ccc(C(F)(F)F)cc2)c1C [4-10],logP (acid) 4.44
5,CSC[C@H](C)NC(=O)c1c(Cl)cccc1C(=O)Nc1cccc(Cn2nc(C(F)(F)C(F)(F)F)nc2-c2ccc(Cl)nc2)c1C [4-11],logP (acid) 3.8
6,CSC[C@H](C)NC(=O)c1c(Cl)cccc1C(=O)Nc1cccc(Cn2nnc(-c3ccc(C(F)(F)F)cc3)n2)c1 [4-16],logP (acid) 3.86

# Same assay, conditions: reverse phase (C18) chromatography at pH2.3, 0.1% phosphoric acid aqueous solution / acetonitrile, linear gradient 10-95% acetonitrile
row,logP (acid),Compound
1,logP (acid) 2.63,Cc1cc(Cn2nc(C(F)(F)F)nc2C(F)(F)F)c(F)cc1NC(=O)c1cccc(Cl)c1C(=O)N[C@@H](C)C[S+](C)[O-] (stereo partly drawn) [7-8]
2,logP (acid) 3.02,Cc1cc(Cn2nc(C(F)(F)F)nc2C(F)(F)F)c(F)cc1NC(=O)c1cccc(Cl)c1C(=O)N[C@@H](C)CS(C)(=O)=O [7-9]
3,logP (acid) 4.37,CSC[C@H](C)NC(=O)c1c(Br)cccc1C(=O)Nc1cc(F)c(Cn2nc(C(F)(F)F)cc2C(F)(F)F)cc1C [7-10]
4,logP (acid) 4.07,CSC[C@H](C)NC(=O)c1c(Br)cccc1C(=O)Nc1cc(F)c(Cn2nc(C(F)(F)F)nc2C(F)(F)F)cc1C [7-13]
5,logP (acid) 2.68,Cc1cc(Cn2nc(C(F)(F)F)nc2C(F)(F)F)c(F)cc1NC(=O)c1cccc(Br)c1C(=O)N[C@@H](C)C[S+](C)[O-] (stereo partly drawn) [7-14]
6,logP (acid) 3.08,Cc1cc(Cn2nc(C(F)(F)F)nc2C(F)(F)F)c(F)cc1NC(=O)c1cccc(Br)c1C(=O)N[C@@H](C)CS(C)(=O)=O [7-15]
7,logP (acid) 3.96,CSC[C@H](C)NC(=O)c1c(SC)cccc1C(=O)Nc1cc(F)c(Cn2nc(C(F)(F)F)nc2C(F)(F)F)cc1C [7-23]

# Same assay, conditions: reverse phase (C18) chromatography, pH 2.3
row,logP (acid),Compound
1,logP (acid) 3.43,CSCC(C)NC(=O)c1c(Cl)cccc1C(=O)Nc1ccc(Cn2cc(C3=NOC(c4cc(Cl)cc(Cl)c4)(C(F)(F)F)C3)c(C(F)(F)F)n2)cc1C (mixture of isomers) [13-201]
2,logP (acid) 2.76,CSCC(C)NC(=O)c1c(Cl)cccc1C(=O)Nc1ccc(C(O)c2cc(C(F)(F)C(F)(F)F)n[nH]2)cc1C (mixture of isomers) [13-231]
3,logP (acid) 2.77,CSCC(C)NC(=O)c1c(SC)cccc1C(=O)Nc1ccc(C(O)c2cc(C(F)(F)C(F)(F)F)n[nH]2)cc1C (mixture of isomers) [13-340]
4,logP (acid) 2.02,CSCC(C)NC(=O)c1c(C(=O)Nc2ccc(C(O)c3cc(C(F)(F)C(F)(F)F)n[nH]3)cc2C)cccc1S(C)(=O)=O (mixture of isomers) [13-341]

row,Compound,logP (acid)
1,Cc1nc(Cn2nc(C(F)(F)F)cc2C(F)(F)F)ccc1NC(=O)c1cccc(S(=O)(=O)N(C)C)c1C(=O)NC(C)C[S+](C)[O-] (mixture of isomers) [13-288],logP (acid) 2.37

# Same assay, conditions: reverse phase (C18) chromatography, pH2.3, 0.1% phosphoric acid / acetonitrile gradient 10-95%
row,logP (acid),Compound
1,logP (acid) 3.84,CNC(=O)c1cc(Cl)cc(Cl)c1C(=O)Nc1cc(Cl)ccc1Cn1nc(C(F)(F)F)nc1C(F)(F)F [3-2]
2,logP (acid) 4.28,CSC[C@H](C)NC(=O)c1c(Cl)cccc1C(=O)Nc1cc(F)c(C)nc1Cn1nc(C(F)(F)F)cc1C(F)(F)F [3-7]
3,logP (acid) 4.13,CSC[C@H](C)NC(=O)c1c(Cl)cccc1C(=O)Nc1cc(F)c(C)cc1Cn1nc(C(F)(F)F)nc1C(F)(F)F [3-8]

# Same assay, conditions: reverse phase (C18) chromatography, pH2.3, 0.1% phosphoric acid aqueous solution / acetonitrile, linear gradient 10-95% acetonitrile
row,logP (acid),Compound
1,logP (acid) 2.51,Cc1nc(Cn2nc(C(F)(F)F)cc2C(F)(F)F)ccc1NC(=O)c1ccc(F)c(Br)c1C(=O)N[C@@H](C)C[S+](C)[O-] (stereo partly drawn) [9-11]
2,logP (acid) 4.29,CSC[C@H](C)NC(=O)c1c(C(=O)Nc2ccc(Cn3nc(C(F)(F)C(F)(F)F)nc3C(F)(F)F)cc2C)ccc(F)c1Br [9-12]
3,logP (acid) 2.96,Cc1cc(Cn2nc(C(F)(F)C(F)(F)F)nc2C(F)(F)F)ccc1NC(=O)c1ccc(F)c(Br)c1C(=O)N[C@@H](C)C[S+](C)[O-] (stereo partly drawn) [9-13]
4,logP (acid) 4.62,CSC[C@H](C)NC(=O)c1c(C(=O)Nc2ccc(Cn3nc(C(F)(F)F)cc3C(F)(F)F)cc2C)ccc(C(F)(F)F)c1Cl [9-14]
5,logP (acid) 4.27,CSC[C@H](C)NC(=O)c1c(C(=O)Nc2ccc(Cn3nc(C(F)(F)C(F)(F)F)nc3C(F)(F)F)cc2C)ccc([N+](=O)[O-])c1Cl [9-15]
6,logP (acid) 3.22,Cc1cc(Cn2nc(C(F)(F)F)cc2C(F)(F)F)ccc1NC(=O)c1ccc(C(F)(F)F)c(Cl)c1C(=O)N[C@@H](C)CS(C)(=O)=O [9-17]
7,logP (acid) 4.30,CSC[C@H](C)NC(=O)c1c(C(=O)Nc2ccc(Cn3nc(C(F)(F)F)nc3C(F)(F)F)cc2C)ccc(C(F)(F)F)c1Cl [9-18]
8,logP (acid) 2.98,Cc1cc(Cn2nc(C(F)(F)F)nc2C(F)(F)F)ccc1NC(=O)c1ccc(C(F)(F)F)c(Cl)c1C(=O)N[C@@H](C)C[S+](C)[O-] (stereo partly drawn) [9-19]
9,logP (acid) 3.27,Cc1nc(Cn2nc(C(F)(F)F)cc2C(F)(F)F)ccc1NC(=O)c1ccc(F)c(Br)c1C(=O)N[C@@H](C)CS(C)(=O)=O [9-21]
10,logP (acid) 3.36,Cc1cc(Cn2nc(C(F)(F)C(F)(F)F)nc2C(F)(F)F)ccc1NC(=O)c1ccc(F)c(Br)c1C(=O)N[C@@H](C)CS(C)(=O)=O [9-22]
11,logP (acid) 4.63,CSC[C@H](C)NC(=O)c1c(C(=O)Nc2ccc(Cn3nc(C(F)(F)C(F)(F)F)nc3C(F)(F)F)cc2C)ccc(C(F)(F)F)c1Cl [9-23]
12,logP (acid) 3.70,Cc1cc(Cn2nc(C(F)(F)C(F)(F)F)nc2C(F)(F)F)ccc1NC(=O)c1ccc(C(F)(F)F)c(Cl)c1C(=O)N[C@@H](C)CS(C)(=O)=O [9-25]
13,logP (acid) 4.25,CSC[C@H](C)NC(=O)c1c(C(=O)Nc2ccc(Cn3nc(C(F)(F)F)cc3C(F)(F)F)nc2C)ccc(C(F)(F)F)c1Cl [9-26]
